Data reported in US20200339548A1, “PYRIMIDINE DERIVATIVES AND THEIR USE FOR THE TREATMENT OF CANCER” (Adorx Therapeutics Limited, priority 2017, published 2020).
Read-outs that look alike come from different tables or passages of the source.

Key:
[1] = target: T1, Adenosine A2a receptor (Homo sapiens, UniProt P29274); assay: Adenosine receptor TR-FRET binding assay, A2a; details: displacement of 100 nM CA200645, CHO cell membranes
T1 construct: expressed in transfected cells; host or cells: CHO cell membranes
In short: (§1)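 Competition TR-FRET binding in CHO cell membranes expressing terbium-labelled human receptors, displacing fluorescent XAC (CA200645; 30 nM for A2b, 100 nM for A1, A2a, A3); 2 h at room temperature with saponin buffer, 1% DMSO. 665/620 nm ratio; non-specific with 10 μM XAC; Ki by Cheng–Prusoff from IC50.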

[2] = target: T2, Adenosine A1 receptor (Homo sapiens, UniProt P30542); assay: Adenosine receptor TR-FRET binding assay, A1; details: Table 9, further testing; displacement of 100 nM CA200645, CHO cell membranes
T2 construct: expressed in transfected cells; host or cells: CHO cell membranes
T2 sequence (P30542 1-326): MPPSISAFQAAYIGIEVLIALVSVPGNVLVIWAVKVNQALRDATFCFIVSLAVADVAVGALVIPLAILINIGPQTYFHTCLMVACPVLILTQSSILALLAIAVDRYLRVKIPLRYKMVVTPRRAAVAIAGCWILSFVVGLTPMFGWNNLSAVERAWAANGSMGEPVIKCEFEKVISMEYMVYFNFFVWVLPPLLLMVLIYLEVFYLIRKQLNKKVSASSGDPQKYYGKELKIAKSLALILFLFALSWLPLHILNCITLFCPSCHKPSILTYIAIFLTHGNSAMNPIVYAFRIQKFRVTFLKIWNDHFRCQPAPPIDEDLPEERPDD
In short: as §1

[3] = target: T3, Adenosine A2b receptor (Homo sapiens, UniProt P29275); assay: Adenosine receptor TR-FRET binding assay, A2b; details: Table 9, further testing; displacement of 30 nM CA200645, CHO cell membranes
T3 construct: expressed in transfected cells; host or cells: CHO cell membranes
T3 sequence (P29275 1-332): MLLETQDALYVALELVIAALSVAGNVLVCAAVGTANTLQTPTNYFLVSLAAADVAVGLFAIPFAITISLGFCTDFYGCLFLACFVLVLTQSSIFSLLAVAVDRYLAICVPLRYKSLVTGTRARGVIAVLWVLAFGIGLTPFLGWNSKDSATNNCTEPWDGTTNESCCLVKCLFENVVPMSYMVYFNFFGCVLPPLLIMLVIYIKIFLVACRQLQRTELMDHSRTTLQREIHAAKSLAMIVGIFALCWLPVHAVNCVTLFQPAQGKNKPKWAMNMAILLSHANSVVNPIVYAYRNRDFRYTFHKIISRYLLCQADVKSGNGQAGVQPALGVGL
In short: as §1

[4] = target: T4, Adenosine A3 receptor (Homo sapiens, UniProt P0DMS8); assay: Adenosine receptor TR-FRET binding assay, A3
T4 construct: expressed in transfected cells; host or cells: CHO cell membranes
T4 sequence (P0DMS8 1-318): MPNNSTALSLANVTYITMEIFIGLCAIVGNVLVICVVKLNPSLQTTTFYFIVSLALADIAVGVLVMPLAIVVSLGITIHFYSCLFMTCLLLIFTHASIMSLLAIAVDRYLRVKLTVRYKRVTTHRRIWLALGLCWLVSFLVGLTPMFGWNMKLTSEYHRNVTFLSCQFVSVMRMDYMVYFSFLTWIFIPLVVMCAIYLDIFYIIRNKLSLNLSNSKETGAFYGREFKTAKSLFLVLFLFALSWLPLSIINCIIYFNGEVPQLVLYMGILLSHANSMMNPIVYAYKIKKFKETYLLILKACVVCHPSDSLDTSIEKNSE
Procedure: All FRET binding experiments were conducted at room temperature in white 384-well plates, in assay binding buffer containing 1× LabMed (Cisbio, France), 100 μg/mL saponin, 1% DMSO and 0.02% pluronic acid. Binding of the fluorescently labelled Adenosine receptor antagonist XAC (CA200645, FRET acceptor) to terbium-labelled A1, A2a, A2b and A3 adenosine receptors (FRET donors) was detected by time-resolved FRET due to the close proximity of the donor and acceptor in a binding event. To investigate the ability of unlabelled test compounds to bind to Adenosine A1, A2a, A2b and A3 receptors, dose response curves were constructed that determined the ability of a range of concentrations to inhibit the binding of 30 nM CA200645 to the A2b receptor and 100 nM CA200645 to the A1, A2a, and A3 receptor.
Serial dilution (1:3 dilutions) of test compounds in neat DMSO and transfer of a 400 nL sample of test compound into the assay plate was carried out using the Mosquito (TTP Labtech, UK). The compound samples were incubated for 2 hours at room temperature with a fixed concentration of CA200645 defined for each receptor (see above) and CHO cell membranes containing the human Adenosine A1 (0.5 μg/well), A2a (0.3 μg/well), A2b (1 μg/well) or A3 (1 μg/well) receptor in 40 μL of assay buffer. Total and non-specific binding of CA200645 was determined in the absence and presence of 10 μM XAC, respectively.
Following 2 hours incubation, the level of CA200645 binding was detected on a Pherastar FSX (BMG Labtech, Germany) using standard TR-FRET settings. The terbium donor was excited with three laser flashes at a wavelength of 337 nm, and donor and acceptor emission was detected at 620 nm and 665 nm wavelengths, respectively. FRET ratios were obtained by multiplying the acceptor/donor ratio value by 10,000. Specific binding was determined by subtracting the non-specific binding FRET ratio from the total binding FRET ratio. Compound IC50 curves were analysed using GraphPad Prism 7.0 (GraphPad, USA) and Ki affinity values were determined from the obtained […] values using the method of Cheng and Prusoff.

[5] = Table 9, further testing, displacement of 100 nM CA200645, CHO cell membranes, read-out: A3 Ki

T1 sequence (P29274 whole entry): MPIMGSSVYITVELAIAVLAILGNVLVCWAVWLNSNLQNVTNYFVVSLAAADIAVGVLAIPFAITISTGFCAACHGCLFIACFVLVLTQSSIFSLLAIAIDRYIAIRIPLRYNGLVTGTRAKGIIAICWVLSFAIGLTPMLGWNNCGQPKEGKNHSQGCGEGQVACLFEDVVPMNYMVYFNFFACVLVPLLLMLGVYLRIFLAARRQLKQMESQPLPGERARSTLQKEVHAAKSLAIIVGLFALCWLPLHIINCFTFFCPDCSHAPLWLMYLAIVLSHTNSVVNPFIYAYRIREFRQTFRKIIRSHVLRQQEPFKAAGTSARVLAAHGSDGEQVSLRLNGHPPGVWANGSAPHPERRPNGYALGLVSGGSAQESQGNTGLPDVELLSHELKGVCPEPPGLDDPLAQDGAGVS

Ki ([1]; Table 9, further testing)	Ki [2]	Ki [3]	Ki [4, 5]	Ki ([1]; Table 8, Cheng and Prusoff)	Compound	Ki [4]
976 nM	632 nM	3190 nM	1850 nM	976 nM	Nc1nc(-c2cccc(F)c2)ncc1C(=O)NCc1cccc(C(F)(F)F)c1 [Example 10.11, 4-Amino-2-(3-fluorophenyl)-N-[[3-(trifluoromethyl)phenyl]methyl]pyrimidine-5-carboxamide]	
104 nM	238 nM	2420 nM	778 nM	104 nM	Nc1nc(-c2cccc(F)c2)ncc1C(=O)NCc1cc(F)cc(F)c1 [Example 10.7, 4-Amino-N-[(3,5-difluorophenyl)methyl]-2-(3-fluorophenyl)pyrimidine-5-carboxamide]	
52 nM	1700 nM	5470 nM	2460 nM	52 nM	Nc1nc(-c2ccco2)ncc1C(=O)NCc1cccc(C(F)(F)F)c1 [Example 5.29, 4-Amino-2-(2-furyl)-N-[[3-(trifluoromethyl)phenyl]methyl]pyrimidine-5-carboxamide]	
194 nM	280 nM	1480 nM	582 nM	194 nM	Nc1nc(-c2cccc(F)c2)ncc1C(=O)NCc1cccc(Cl)c1 [Example 10.2, 4-Amino-N-[(3-chlorophenyl)methyl]-2-(3-fluorophenyl)pyrimidine-5-carboxamide]	

More lines, now with the values behind:

Compound	Ki ([1]; Table 9, further testing)	Ki [2]	Ki [3]	Ki [4, 5]	Ki ([1]; Table 8, Cheng and Prusoff)	Ki [4]
CC(=O)NCCOc1nc(-c2ccco2)nc(N)c1C(=O)NCc1ncccc1C [Example 20, 4-(2-Acetamidoethoxy)-6-amino-2-(2-fury)-N-[(3-methyl-2-pyridyl)methyl]pyrimidine-5-carboxamide]	1.1 nM	109 nM	508 nM	830 nM		
CCCOc1nc(-c2ccco2)nc(N)c1C(=O)NCc1ncccc1C [Example 20.9, 4-Amino-2-(2-furyl)-N-[(3-methyl-2-pyridyl)methyl]-6-propoxy-pyrimidine-5-carboxamide]	0.52 nM	44 nM	384 nM	18 nM		
Nc1nc(-c2ccco2)ncc1C(=O)NCc1ncccc1C(F)(F)F [Example 5.30, 4-Amino-2-(2-furyl)-N-[[3-(trifluoromethyl)-2-pyridyl]methyl]pyrimidine-5-carboxamide]	2.7 nM	4750 nM	2350 nM			2300 nM
COCCOc1nc(-c2ccco2)nc(N)c1C(=O)NCc1ncccc1C [Example 20.6, 4-Amino-2-(2-furyl)-6-(2-methoxyethoxy)-N-[(3-methyl-2-pyridyl)methyl]pyrimidine-5-carboxamide]	0.54 nM	19 nM	382 nM	5.6 nM		
Cc1ccc(-c2ncc(C(=O)NCc3ncccc3C)c(N)n2)o1 [Example 3.1, 4-Amino-2-(5-methyl-2-furyl)-N-[(3-methyl-2-pyridyl)methyl]pyrimidine-5-carboxamide]	424 nM	995 nM	5540 nM	818 nM		
Nc1cccnc1CNC(=O)c1cnc(-c2ccco2)nc1N [Example 5.53, 4-Amino-N-[(3-amino-2-pyridyl)methyl]-2-(2-furyl)pyrimidine-5-carboxamide]	11 nM	6020 nM	644 nM	4630 nM		
Nc1nc(-c2ccco2)ncc1C(=O)NCc1ccccc1C(F)F [Example 5.35, 4-Amino-N-[[2-(difluoromethyl)phenyl]methyl]-2-(2-furyl)pyrimidine-5-carboxamide]	12 nM	2620 nM	1330 nM	2800 nM		
Nc1nc(-c2cccc(F)c2)ncc1C(=O)NCc1ncccc1Cl [Example 10.12, 4-Amino-N-[(3-chloro-2-pyridyl)methyl]-2-(3-fluorophenyl)pyrimidine-5-carboxamide]	36 nM	400 nM	536 nM	371 nM	36 nM	
